This is an account of results in US4353917A, “Amino derivatives of 2-methyl-5-(2-hydroxystyryl)-1,3,4-thiadiazole, their preparation, and formulations containing these compounds” (BASF Aktiengesellschaft, priority 1979, dated 1982).

SMILES strings stand for the structures.

One data set deals with T1, cardiac β1 -receptors (Felis catus, UniProt Q9TST6).
T1 construct: pulse rate of narcotized cats (weighing 2-4 kg); from tissue; host or cells: heart of the living cat (in vivo, hexobarbital narcosis)
Kind of data set: β-Sympatholytic action: inhibition of isoproterenol-induced tachycardia in narcotized cats. In kind it is in vivo. The conditions noted are these: for β1 -Sympatholytic action R.A. (relative activity): Propranolol = 1.00, cats, intravenous; for ED50: cat, cats under hexobarbital narcosis, intravenous administration, read-out: β1 -Sympatholytic action ED 50%: dose which inhibits the isoproterenol-induced tachycardia by 50%; for blocking dose for cardiac β1 -receptors: times lower than that of propranolol: versus comparative substance propranolol. As for the experimental part:
The β-sympatholytic action was tested on cats. […] The following methods were employed in the tests:
Isoproterenol (1 μg/kg, administered intravenously) causes increases, averaging 40%, in the pulse rate of narcotized cats (weighing 2-4 kg). β-Sympatholytic agents inhibit such tachycardia. Isoproterenol was administered before, and 10 and 40 minutes after, the intravenous administration of the test substances. Linear relationships exist between the logarithms of the administered doses (mg/kg) of the test substances and the inhibition of isoproterenol-induced tachycardia (%).
^(1) Inhibition of isoproterenolinduced tachycardia. Cats under
hexobarbital narcosis. Intravenous administration.
^(2) Dose (mg/kg), which inhibits the isoproterenolinduced tachycardi
^(3) Relative activity.

A short description of another data set: in vivo. The conditions noted are these: mouse; for selectivity ratio: footnote (5) formula is a drawing, read-out: Therapeutic range; for LD50: ip, mice, intraperitoneal administration, read-out: Acute toxicity LD 50.
The subject of a further data set is NMRI mice. Kind of data set: in vivo. The conditions noted are these: mouse.
Data set [1] relates to pulse rate of narcotized cats. Kind of data set: Increase in pulse rate of narcotized cats by isoproterenol. In kind it is in vivo. The conditions noted are these: 1 μg/kg, intravenously; narcotized cats (2-4 kg); average. As for the experimental part: Isoproterenol (1 μg/kg, administered intravenously) causes increases, averaging 40%, in the pulse rate of narcotized cats (weighing 2-4 kg). β-Sympatholytic agents inhibit such tachycardia. Isoproterenol was administered before, and 10 and 40 minutes after, the intravenous administration of the test substances. Linear relationships exist between the logarithms of the administered doses (mg/kg) of the test substances and the inhibition of isoproterenol-induced tachycardia (%). From these relationships, the doses (ED 50%) which inhibit the isoproterenol-induced tachycardia by 50% are determined.

T1 sequence (Q9TST6 whole entry): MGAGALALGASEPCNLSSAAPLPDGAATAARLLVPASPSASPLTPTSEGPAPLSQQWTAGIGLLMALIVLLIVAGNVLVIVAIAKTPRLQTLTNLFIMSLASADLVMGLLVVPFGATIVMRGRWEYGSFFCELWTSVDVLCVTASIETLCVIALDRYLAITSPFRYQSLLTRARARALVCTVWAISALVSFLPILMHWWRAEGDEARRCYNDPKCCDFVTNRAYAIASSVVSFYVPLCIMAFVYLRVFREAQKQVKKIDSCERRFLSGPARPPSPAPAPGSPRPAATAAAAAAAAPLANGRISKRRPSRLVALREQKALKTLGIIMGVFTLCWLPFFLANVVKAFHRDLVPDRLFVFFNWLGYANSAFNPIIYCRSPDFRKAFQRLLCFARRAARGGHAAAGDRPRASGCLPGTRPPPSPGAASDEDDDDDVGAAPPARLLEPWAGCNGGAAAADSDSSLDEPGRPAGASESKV

With `COc1ccc(CCNCC(O)COc2ccccc2C=Cc2nnc(C)s2)cc1OC` (stereo not shown) [Example 2], on cardiac β1 -receptors, the “β1 -Sympatholytic action R.A. (relative activity)” value was 5.64, the ED50 is 0.025 mg/kg and the “blocking dose for cardiac β1 -receptors: times lower than that of propranolol” value stood at 5.6 times. Besides, in “in vivo”, the selectivity ratio was 3250 and the LD50 came out at 81.3 mg/kg. The “therapeutic range: times greater than for propranolol” value with NMRI mice worked out at 4.2 times.
Regarding `Cc1nnc(C=Cc2ccccc2OCC(O)CNC(C)CCc2ccc(O)cc2)s1` (stereo not shown) [Example 4], on cardiac β1 -receptors, the “β1 -Sympatholytic action R.A. (relative activity)” value stood at 6.71, the ED50 was found to be 0.021 mg/kg and the “blocking dose for cardiac β1 -receptors: times lower than that of propranolol” value is 6.7 times. In the data set “in vivo”, the selectivity ratio worked out at 1990 and the LD50 was 41.7 mg/kg. Moreover, the “therapeutic range: times greater than for propranolol” value with NMRI mice turned out to be 2.6 times.
With `CC(C)NCC(O)c1ccc(O)c(O)c1` (stereo not shown) [Isoproterenol], the “increase in the pulse rate” value in data set [1] is given as roughly 40%.
